Data on one compound can be found in PMC12143348, “Rapid and reversible fluorescent probe enables repeated snapshot imaging of AMPA receptors during synaptic plasticity” (Science Advances, 2025).

One test deals with T1, GluA2flip(R) + TARP γ7 (Mus musculus, UniProt P23819, DEL765-802/Q607R).
T1 construct: expressed in transfected cells; host or cells: HEK293T
Description: Concentration-dependent binding of PFQX1(AF488) to GluA2flip(R) expressed with TARP γ7 in HEK293T cells. The following applies: n = 3–4, read-out: Kd / Affinity of PFQX1(AF488) to GluA2flip(R) with TARP γ7. The procedure:
HEK293T cells (American Type Culture Collection) were cultured in Dulbecco’s modified Eagle’s medium (DMEM)–GlutaMAX (Invitrogen) supplemented with 10% fetal bovine serum (FBS) (Sigma-Aldrich), penicillin (100 U ml^−1), and streptomycin (100 μg ml^−1) and incubated in a 5% CO2 humidified chamber at 37°C. Cells were transfected with a plasmid using Lipofectamine 3000 (Invitrogen) according to the manufacturer’s instructions. Twenty-four hours after transfection, the cells were seeded on glass-bottom dishes coated with poly-L-lysine solution and incubated for 24 hours except for GluA4, TARP γ7, and GluK2. For GluA4, TARP γ7, and GluK2 expression, the cells were used 24 hours after transfection. […]
HEK293T cells were cotransfected with plasmids for AMPAR [5′UTR-GluA1^flip(R)-3′UTR, GluA2^flip(Q)-3′UTR, GluA3^flip(Q) (Y454A/R461G), and GluA4^flip(Q)], kainate receptor [GluK2(Q)], auxiliary subunits, or the control vector and transfection marker (EFGP-F or mCherry-F). […] Fluorescence images were acquired by excitation at 405, 488, 561, or 640 nm derived from diode lasers.
For evaluating the concentration dependency of fluorophore-ligand conjugates, 0.1 nM probe in HBS was added to the dish. […] Cell surface fluorescence intensity was quantified from the line scans of transfection marker positive cells and calculated with subtraction of background by ZEN blue software (Carl Zeiss). […]

A further test addresses T2, GluK2(Q) (Rattus norvegicus, UniProt P42260).
T2 construct: expressed in transfected cells; host or cells: HEK293T
Description: Confocal live imaging of HEK293T cells expressing GluK2(Q) treated with PFQX1(AF488). Format: binding. The following applies: even at high concentration (300 nM). The procedure:
(§1) HEK293T cells were cotransfected with plasmids for AMPAR [5′UTR-GluA1^flip(R)-3′UTR, GluA2^flip(Q)-3′UTR, GluA3^flip(Q) (Y454A/R461G), and GluA4^flip(Q)], kainate receptor [GluK2(Q)], auxiliary subunits, or the control vector and transfection marker (EFGP-F or mCherry-F). Fluorophore-ligand conjugates were diluted in Hepes-buffered saline (HBS) buffer [20 mM Hepes (pH 7.4), 107 mM NaCl, 6 mM KCl, 1.2 mM MgSO4, 2 mM CaCl2, and 11.5 mM glucose] and added to the cells. Confocal live imaging was performed with LSM900 (Carl Zeiss) equipped with a 63×, numerical aperture (NA) = 1.4 oil-immersion objective. Fluorescence images were acquired by excitation at 405, 488, 561, or 640 nm derived from diode lasers.
Anti-HA mCherry-F Merge1.0
Fig. S8. Sub-micromolar concentrations of PFQX1(AF488) fail to visualize cell surface kainate receptors in HEK293T cells. (A) HA-tag staining of GluK2(Q).
GluK2(Q) expressing cells were treated with anti-HA antibody (Alexa Fluor 647 conjugate) for 15 min. Scale bar, 10 µm. (B) Fluorescence Ca2+ assay to analyze the inhibition of 100 µM kainic acid-induced response by PFQX-amine. HEK293T cells were transfected with GluK2(Q). The intensity was normalized to that at 0.1 µM PFQX-amine (n = 3). (C) Representative results of confocal live cell imaging of HEK293T cells expressing GluK2(Q) are shown. mCherry-F was used as a transfection marker. […]

The target of another test is GluA1 (Mus musculus, UniProt P23818). Briefly: Concentration-dependent binding of PFQX1(AF488), confocal live imaging of HEK293T cells expressing GluA1. The following applies: n = 3, mean ± s.e.m., read-out: Kd / Affinity of PFQX1(AF488) to GluA1. The procedure:
as §1
For evaluating the concentration dependency of fluorophore-ligand conjugates, 0.1 nM probe in HBS was added to the dish. Then, probes in HBS were added stepwise to the dish to a final concentration of 0.3, 1, 3, 10, 30, 100, 300, 1000, and 3000 nM. Cell surface fluorescence intensity was quantified from the line scans of transfection marker positive cells and calculated with subtraction of background by ZEN blue software (Carl Zeiss). The membrane intensity was fitted with KaleidaGraph (Synergy software) to calculate the equilibrium constant value using the following equation: a + (b − a)/(1 + (x/c)^d). The equilibrium constant is regarded as the Kd in this study.

T1 sequence (P23819 with tags, fused parts or gaps isoform P23819-4 Q607R/DEL765-802): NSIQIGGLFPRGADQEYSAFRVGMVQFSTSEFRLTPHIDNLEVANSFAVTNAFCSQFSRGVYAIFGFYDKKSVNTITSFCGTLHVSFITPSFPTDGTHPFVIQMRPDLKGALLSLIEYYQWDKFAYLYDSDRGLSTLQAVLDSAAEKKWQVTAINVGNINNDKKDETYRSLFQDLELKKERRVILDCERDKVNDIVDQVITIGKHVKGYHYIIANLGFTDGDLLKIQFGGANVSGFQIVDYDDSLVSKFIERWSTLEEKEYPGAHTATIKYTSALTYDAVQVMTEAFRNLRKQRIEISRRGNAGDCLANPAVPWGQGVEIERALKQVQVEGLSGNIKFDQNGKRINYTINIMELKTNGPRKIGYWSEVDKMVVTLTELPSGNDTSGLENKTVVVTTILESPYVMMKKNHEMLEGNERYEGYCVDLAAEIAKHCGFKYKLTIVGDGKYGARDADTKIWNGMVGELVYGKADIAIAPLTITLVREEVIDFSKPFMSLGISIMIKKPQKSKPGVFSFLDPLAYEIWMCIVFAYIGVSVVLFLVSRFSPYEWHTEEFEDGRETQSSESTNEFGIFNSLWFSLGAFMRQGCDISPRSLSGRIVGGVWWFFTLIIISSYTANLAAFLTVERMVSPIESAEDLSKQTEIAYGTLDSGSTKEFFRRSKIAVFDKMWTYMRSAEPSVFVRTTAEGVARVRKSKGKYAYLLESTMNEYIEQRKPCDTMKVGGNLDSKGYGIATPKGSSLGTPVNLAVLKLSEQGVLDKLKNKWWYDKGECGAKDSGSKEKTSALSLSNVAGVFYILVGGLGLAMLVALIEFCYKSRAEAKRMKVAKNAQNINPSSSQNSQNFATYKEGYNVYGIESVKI
T1 sequence (P62956 whole entry partner): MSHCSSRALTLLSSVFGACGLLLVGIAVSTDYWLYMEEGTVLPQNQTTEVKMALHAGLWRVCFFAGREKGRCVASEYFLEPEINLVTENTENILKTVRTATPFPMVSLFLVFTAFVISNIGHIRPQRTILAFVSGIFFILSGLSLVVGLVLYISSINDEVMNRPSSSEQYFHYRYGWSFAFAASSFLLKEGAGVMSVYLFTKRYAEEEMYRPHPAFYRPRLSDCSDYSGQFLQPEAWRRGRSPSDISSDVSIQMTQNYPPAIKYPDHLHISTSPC
Chain of GluA1 (P23818 19-907): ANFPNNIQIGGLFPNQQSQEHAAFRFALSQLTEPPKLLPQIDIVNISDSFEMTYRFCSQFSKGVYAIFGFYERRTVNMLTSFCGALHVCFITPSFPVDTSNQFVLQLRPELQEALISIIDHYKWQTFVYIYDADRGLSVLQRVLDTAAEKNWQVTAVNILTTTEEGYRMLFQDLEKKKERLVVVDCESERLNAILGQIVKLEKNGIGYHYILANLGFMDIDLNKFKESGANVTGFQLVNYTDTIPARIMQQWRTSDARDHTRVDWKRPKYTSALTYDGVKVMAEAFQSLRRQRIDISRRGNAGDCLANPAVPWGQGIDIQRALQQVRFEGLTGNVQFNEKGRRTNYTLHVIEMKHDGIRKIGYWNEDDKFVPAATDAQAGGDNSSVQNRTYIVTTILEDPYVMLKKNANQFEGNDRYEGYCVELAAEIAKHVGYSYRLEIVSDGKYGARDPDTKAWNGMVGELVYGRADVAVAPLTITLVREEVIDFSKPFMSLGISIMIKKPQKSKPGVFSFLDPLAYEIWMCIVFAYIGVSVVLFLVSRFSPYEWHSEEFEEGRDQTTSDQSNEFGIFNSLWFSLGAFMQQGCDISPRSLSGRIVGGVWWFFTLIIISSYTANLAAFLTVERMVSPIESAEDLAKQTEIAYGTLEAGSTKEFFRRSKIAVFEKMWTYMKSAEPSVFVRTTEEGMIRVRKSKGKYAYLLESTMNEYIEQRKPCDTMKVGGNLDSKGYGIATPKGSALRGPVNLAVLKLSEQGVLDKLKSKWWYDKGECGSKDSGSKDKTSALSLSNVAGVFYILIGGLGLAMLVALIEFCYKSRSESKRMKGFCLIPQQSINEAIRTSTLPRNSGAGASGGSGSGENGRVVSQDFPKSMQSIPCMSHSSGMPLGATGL
T2 sequence (P42260 32-908): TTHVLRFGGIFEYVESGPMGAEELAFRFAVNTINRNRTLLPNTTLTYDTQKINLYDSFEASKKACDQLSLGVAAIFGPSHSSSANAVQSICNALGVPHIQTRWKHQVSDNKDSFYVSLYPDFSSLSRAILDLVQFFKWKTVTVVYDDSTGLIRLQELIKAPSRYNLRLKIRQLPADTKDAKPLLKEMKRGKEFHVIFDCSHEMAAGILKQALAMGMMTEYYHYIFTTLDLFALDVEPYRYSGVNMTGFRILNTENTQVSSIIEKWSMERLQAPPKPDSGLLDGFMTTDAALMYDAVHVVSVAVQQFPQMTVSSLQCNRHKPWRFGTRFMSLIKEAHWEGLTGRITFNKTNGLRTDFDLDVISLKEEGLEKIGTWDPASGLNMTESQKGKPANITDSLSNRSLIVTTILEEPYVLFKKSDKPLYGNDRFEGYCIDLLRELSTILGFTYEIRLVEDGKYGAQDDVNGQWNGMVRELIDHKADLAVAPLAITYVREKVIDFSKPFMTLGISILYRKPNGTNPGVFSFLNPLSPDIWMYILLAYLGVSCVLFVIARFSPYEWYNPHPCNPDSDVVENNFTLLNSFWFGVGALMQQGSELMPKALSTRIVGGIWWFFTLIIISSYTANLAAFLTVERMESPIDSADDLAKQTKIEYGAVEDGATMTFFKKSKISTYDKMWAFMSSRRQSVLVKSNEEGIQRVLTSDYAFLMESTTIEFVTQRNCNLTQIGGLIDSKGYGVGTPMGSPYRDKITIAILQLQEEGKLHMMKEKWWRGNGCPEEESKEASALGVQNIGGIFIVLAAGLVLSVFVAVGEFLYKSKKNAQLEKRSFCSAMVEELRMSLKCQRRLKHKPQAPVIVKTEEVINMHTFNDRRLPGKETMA

In the case of `N=c1ccc2c(-c3ccc(C(=O)NCc4ccn(-c5cc6c(cc5C(F)(F)F)[nH]c(=O)c(=O)n6CC(=O)O)c4)cc3C(=O)O)c3ccc(N)c(S(=O)(=O)O)c3oc-2c1S(=O)(=O)O` [PFQX1(AF488)], the Kd on GluA2flip(R) + TARP γ7 worked out at 118 ± 44.7 nM; on GluA1, 78.7 ± 15.4 nM. Further, on GluK2(Q), the “visualization of GluK2” value is “failed to visualize GluK2”.
